Results reported in US20240067693A1, “POLYPEPTIDES AND USES THEREOF” (MEDIMMUNE LIMITED, priority 2020, published 2024).
Numbered stars: 1 amine (or outer) side, 2 acyl side, 3 side chain; on linkers, the order of the positions; unused ones are H or OH. Bridge positions count the residues as written; N and C are the ends. Square brackets hold non-standard residues; d marks the D form. Side chains are listed from the residue outwards. Peptide text beside a SMILES is read from it. * marks the point of attachment. C18 diacid = O=C(O)CCCCCCCCCCCCCCCCC(=O)*; γGlu = O=C(O)[C@H](CCC(=O)[*:2])N[*:1]; AEEA = NCCOCCOCC(=O)O; Aib = CC(C)(N)C(=O)O

Key:
[1] = molecular target: T1, human amylin receptor (calcitonin receptor co-expressed with receptor activity modifying protein, RAMP3) (hAMYR3) (Homo sapiens, UniProt O60896+P30988); assay: cAMP production in 1321N1 cells with stable recombinant expression of human amylin receptor (hAMYR3); assay type: cell-based; settings: for Ratio (selectivity hAMYR vs hCTR, ratio of EC50 values at the two receptors): EC50 hCTR / EC50 hAMYR3; for EC50: cAMP, 1321N1 cells, assay buffer with 0.1% BSA, read-out: EC50 (pM) hAMYR3
T1 construct: expressed in transfected cells
T1 sequence (P30988 25-474): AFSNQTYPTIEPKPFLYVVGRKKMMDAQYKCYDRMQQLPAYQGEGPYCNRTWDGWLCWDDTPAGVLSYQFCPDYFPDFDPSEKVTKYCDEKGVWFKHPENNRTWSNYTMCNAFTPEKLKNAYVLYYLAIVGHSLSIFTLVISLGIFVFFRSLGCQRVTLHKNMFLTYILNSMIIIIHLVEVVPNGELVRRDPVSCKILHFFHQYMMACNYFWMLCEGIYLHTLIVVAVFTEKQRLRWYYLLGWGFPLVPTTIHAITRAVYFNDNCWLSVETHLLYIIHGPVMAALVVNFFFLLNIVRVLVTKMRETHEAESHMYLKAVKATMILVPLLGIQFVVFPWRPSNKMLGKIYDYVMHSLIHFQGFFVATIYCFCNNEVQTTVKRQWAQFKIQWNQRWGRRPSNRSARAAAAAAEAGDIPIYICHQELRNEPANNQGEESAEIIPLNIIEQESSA
T1 sequence (O60896 24-148 partner): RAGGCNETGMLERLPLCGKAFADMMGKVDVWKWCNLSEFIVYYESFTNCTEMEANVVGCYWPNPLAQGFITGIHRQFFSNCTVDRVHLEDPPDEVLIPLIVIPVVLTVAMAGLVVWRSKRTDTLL
Outline: (§1)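 EC50 values come from 4-parameter logistic fits of HTRF cAMP signal, normalised to maximal calcitonin or amylin effect. Peptides were tested in duplicate for 30 min at RT in IBMX-containing (0.5 mM) BSA/HEPES buffer pH 7.4 on stable 1321N1 (human CTR, AMYR3) or HEK (rat CTR, AMYR3) lines.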

[2] = Thioflavin T fibrillation assay; assay type: physicochemical; settings: for fibril-forming tendency: ThT assay, 1 mg/mL, pH 4.0, 37 °C, compared to pramlintide; for Time taken to detect increase in fluorescence intensity: ThT fibrillation assay, peptide 1 mg/mL in 25 mM sodium acetate buffer pH 4.0, 6 days at 37 °C with shaking, >144 h = no increase
Outline: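 Peptides at 1 mg/mL in 25 mM sodium acetate pH 4.0 with ThT (from 0.25 mM stock), incubated 6 days at 37 °C with intermittent orbital shaking at 500–750 rpm. Fluorescence (ex 444/em 480 nm) read every 30 min; value is average time to a rise in baseline-corrected signal.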

[3] = molecular target: T2, human calcitonin receptor (hCTR) (Homo sapiens, UniProt P30988); assay: cAMP production in 1321N1 cells with stable recombinant expression of human calcitonin receptor (hCTR); assay type: cell-based; settings: cAMP, 1321N1 cells, assay buffer with 0.1% BSA; read-out: EC50 (pM) hCTR
T2 construct: expressed in transfected cells
T2 sequence (P30988 25-474): T1 sequence (P30988 25-474)
Outline: as §1

[4] = in vivo; settings: male, Sprague-Dawley, rat, 20 nmol/kg
[5] = Pharmacokinetic determination via IV and SC administration in Sprague Dawley rats; settings: male, rat, plasma, 20 nmol/kg

SMILES | Ratio (selectivity hAMYR vs hCTR, ratio of EC50 values at the two receptors) [1] | EC50 [1] [pM] | fibril-forming tendency [2] | Time taken to detect increase in fluorescence intensity [2] [h] | EC50 [3] [pM] | half-life ([4]; iv) [h] | half-life ([4]; sc) [h] | half-life ([5]; iv) [h] | half-life ([5]; sc) [h]
CC[C@H](C)[C@H](NC(=O)[C@@H]1CCCN1C(=O)CNC(=O)[C@H](Cc1ccccc1)NC(=O)[C@H](CC(N)=O)NC(=O)C(C)(C)NC(=O)[C@H](CO)NC(=O)[C@H](CO)NC(=O)[C@H](Cc1c[nH]cn1)NC(=O)[C@@H](NC(=O)[C@H](CC(C)C)NC(=O)[C@H](Cc1ccccc1)NC(=O)[C@H](CC(N)=O)NC(=O)[C@H](C)NC(=O)[C@H](CC(C)C)NC(=O)[C@H](CCCNC(=N)N)NC(=O)[C@H](CCC(N)=O)NC(=O)[C@@H](NC(=O)[C@H](C)NC(=O)[C@@H]1CSSC[C@H](NC(=O)[C@H](CCCCN)NC(=O)[C@@H](N)CCCCNC(=O)CC[C@H](NC(=O)CCCCCCCCCCCCCCCCC(=O)O)C(=O)O)C(=O)N[C@@H](CC(N)=O)C(=O)N[C@@H]([C@@H](C)O)C(=O)N[C@@H](C)C(=O)N[C@@H]([C@@H](C)O)C(=O)N1)[C@@H](C)O)C(C)C)C(=O)N[C@@H](CC(C)C)C(=O)N1CCC[C@H]1C(=O)N1CCC[C@H]1C(=O)N[C@H](C(=O)NC(C)(C)C(=O)N[C@H](C(=O)NCC(=O)N[C@@H](CO)C(=O)N[C@@H](CC(N)=O)C(=O)N[C@H](C(=O)N[C@@H](Cc1ccc(O)cc1)C(N)=O)[C@@H](C)O)C(C)C)[C@@H](C)O [Peptide 80, K(γE-C18diacid)K[CNTATC]ATQRLANFLVHSS(Aib)NFGPILPPT(Aib)VGSNTY-amide] (H-K([γGlu-C18 diacid])KCNTATCATQRLANFLVHSS[Aib]NFGPILPPT[Aib]VGSNTY-NH2; disulfide 3-8; N-terminus assumed) | 7 | 407 |  | >144 | 2970 | 9.7 | 9.9 |  | 
CC[C@H](C)[C@H](NC(=O)[C@@H]1CCCN1C(=O)CNC(=O)[C@H](Cc1ccccc1)NC(=O)[C@H](CC(N)=O)NC(=O)[C@H](CC(N)=O)NC(=O)[C@H](CO)NC(=O)[C@H](CO)NC(=O)[C@H](Cc1c[nH]cn1)NC(=O)C(C)(C)NC(=O)[C@H](CC(C)C)NC(=O)[C@H](Cc1ccccc1)NC(=O)[C@H](CC(N)=O)NC(=O)[C@H](C)NC(=O)[C@H](CC(C)C)NC(=O)[C@H](CCCNC(=N)N)NC(=O)[C@H](CCC(N)=O)NC(=O)[C@@H](NC(=O)[C@H](C)NC(=O)[C@@H]1CSSC[C@H](NC(=O)[C@@H](N)CCCCNC(=O)CC[C@H](NC(=O)CCCCCCCCCCCCCCCCC(=O)O)C(=O)O)C(=O)N[C@@H](CC(N)=O)C(=O)N[C@@H]([C@@H](C)O)C(=O)N[C@@H](C)C(=O)N[C@@H]([C@@H](C)O)C(=O)N1)[C@@H](C)O)C(=O)N[C@@H](CC(C)C)C(=O)N1CCC[C@H]1C(=O)N1CCC[C@H]1C(=O)N[C@H](C(=O)N[C@@H](CCCNC(=N)N)C(=O)N[C@H](C(=O)NCC(=O)N[C@@H](CO)C(=O)N[C@@H](CC(N)=O)C(=O)N[C@H](C(=O)N[C@@H](Cc1ccc(O)cc1)C(N)=O)[C@@H](C)O)C(C)C)[C@@H](C)O [Peptide 155] (H-K([γGlu-C18 diacid])CNTATCATQRLANFL[Aib]HSSNNFGPILPPTRVGSNTY-NH2; disulfide 2-7; N-terminus assumed) | 11.9 | 329 |  |  | 3930 |  |  | 7.7 | 8.9
CC[C@H](C)[C@H](NC(=O)[C@@H]1CCCN1C(=O)CNC(=O)[C@H](Cc1ccccc1)NC(=O)[C@H](CC(N)=O)NC(=O)C(C)(C)NC(=O)[C@H](CO)NC(=O)[C@H](CO)NC(=O)[C@H](Cc1c[nH]cn1)NC(=O)C(C)(C)NC(=O)[C@H](CC(C)C)NC(=O)[C@H](Cc1ccccc1)NC(=O)[C@H](CC(N)=O)NC(=O)[C@H](C)NC(=O)[C@H](CC(C)C)NC(=O)[C@H](CCCNC(=N)N)NC(=O)[C@H](CCC(N)=O)NC(=O)[C@@H](NC(=O)[C@H](C)NC(=O)[C@@H]1CSSC[C@H](NC(=O)[C@H](CCCCN)NC(=O)[C@@H](N)CCCCNC(=O)CC[C@H](NC(=O)CCCCCCCCCCCCCCCCC(=O)O)C(=O)O)C(=O)N[C@@H](CC(N)=O)C(=O)N[C@@H]([C@@H](C)O)C(=O)N[C@@H](C)C(=O)N[C@@H]([C@@H](C)O)C(=O)N1)[C@@H](C)O)C(=O)N[C@@H](CC(C)C)C(=O)N1CCC[C@H]1C(=O)N1CCC[C@H]1C(=O)N[C@H](C(=O)N[C@@H](CC(N)=O)C(=O)N[C@H](C(=O)NCC(=O)N[C@@H](CO)C(=O)N[C@@H](CC(N)=O)C(=O)N[C@H](C(=O)N[C@@H](Cc1ccc(O)cc1)C(N)=O)[C@@H](C)O)C(C)C)[C@@H](C)O [Peptide 36, K(γE-C18diacid)K[CNTATC]ATQRLANFL(Aib)HSS(Aib)NFGPILPPTNVGSNTY-amide] (H-K([γGlu-C18 diacid])KCNTATCATQRLANFL[Aib]HSS[Aib]NFGPILPPTNVGSNTY-NH2; disulfide 3-8; N-terminus assumed) | 19 | 331 |  |  | 6390 |  |  | 7.2 | 11.6

Stronger by EC50 [1], values ahead:

Ratio (selectivity hAMYR vs hCTR, ratio of EC50 values at the two receptors) [1] | EC50 [1] [pM] | fibril-forming tendency [2] | Time taken to detect increase in fluorescence intensity [2] [h] | EC50 [3] [pM] | half-life ([4]; iv) [h] | half-life ([4]; sc) [h] | half-life ([5]; iv) [h] | half-life ([5]; sc) [h] | SMILES
21 | 174 | increases the fibril-forming tendency | 7 | 3600 | 10.5 | 9.4 |  |  | CC[C@H](C)[C@H](NC(=O)[C@@H]1CCCN1C(=O)CNC(=O)[C@H](Cc1ccccc1)NC(=O)[C@H](CC(N)=O)NC(=O)[C@H](CC(N)=O)NC(=O)[C@H](CO)NC(=O)[C@H](CO)NC(=O)[C@H](Cc1c[nH]cn1)NC(=O)[C@@H](NC(=O)[C@H](CC(C)C)NC(=O)[C@H](Cc1ccccc1)NC(=O)[C@H](CC(N)=O)NC(=O)[C@H](C)NC(=O)[C@H](CC(C)C)NC(=O)[C@H](CCCNC(=N)N)NC(=O)[C@H](CCC(N)=O)NC(=O)[C@@H](NC(=O)[C@H](C)NC(=O)[C@@H]1CSSC[C@H](NC(=O)[C@@H](N)CCCCNC(=O)CC[C@H](NC(=O)CC[C@H](NC(=O)CCCCCCCCCCCCCCCCC(=O)O)C(=O)O)C(=O)O)C(=O)N[C@@H](CC(N)=O)C(=O)N[C@@H]([C@@H](C)O)C(=O)N[C@@H](C)C(=O)N[C@@H]([C@@H](C)O)C(=O)N1)[C@@H](C)O)C(C)C)C(=O)N[C@@H](CC(C)C)C(=O)N1CCC[C@H]1C(=O)N1CCC[C@H]1C(=O)N[C@H](C(=O)N[C@@H](CC(N)=O)C(=O)N[C@H](C(=O)NCC(=O)N[C@@H](CO)C(=O)N[C@@H](CC(N)=O)C(=O)N[C@H](C(=O)N[C@@H](Cc1ccc(O)cc1)C(N)=O)[C@@H](C)O)C(C)C)[C@@H](C)O [Peptide 5] (H-K([γGlu-γGlu-C18 diacid])CNTATCATQRLANFLVHSSNNFGPILPPTNVGSNTY-NH2; disulfide 2-7; N-terminus assumed)
5 | 68 | increases the fibril-forming tendency | 15 | 310 | 9.5 | 17.6 |  |  | CC[C@H](C)[C@H](NC(=O)[C@@H]1CCCN1C(=O)CNC(=O)[C@H](Cc1ccccc1)NC(=O)[C@H](CC(N)=O)NC(=O)[C@H](CC(N)=O)NC(=O)[C@H](CO)NC(=O)[C@H](CO)NC(=O)[C@H](Cc1c[nH]cn1)NC(=O)[C@@H](NC(=O)[C@H](CC(C)C)NC(=O)[C@H](Cc1ccccc1)NC(=O)[C@H](CC(N)=O)NC(=O)[C@H](C)NC(=O)[C@H](CC(C)C)NC(=O)[C@H](CCCNC(=N)N)NC(=O)[C@H](CCC(N)=O)NC(=O)[C@@H](NC(=O)[C@H](C)NC(=O)[C@@H]1CSSC[C@H](NC(=O)[C@@H](N)CCCCNC(=O)COCCOCCNC(=O)COCCOCCNC(=O)CC[C@H](NC(=O)CCCCCCCCCCCCCCCCC(=O)O)C(=O)O)C(=O)N[C@@H](CC(N)=O)C(=O)N[C@@H]([C@@H](C)O)C(=O)N[C@@H](C)C(=O)N[C@@H]([C@@H](C)O)C(=O)N1)[C@@H](C)O)C(C)C)C(=O)N[C@@H](CC(C)C)C(=O)N1CCC[C@H]1C(=O)N1CCC[C@H]1C(=O)N[C@H](C(=O)N[C@@H](CC(N)=O)C(=O)N[C@H](C(=O)NCC(=O)N[C@@H](CO)C(=O)N[C@@H](CC(N)=O)C(=O)N[C@H](C(=O)N[C@@H](Cc1ccc(O)cc1)C(N)=O)[C@@H](C)O)C(C)C)[C@@H](C)O [Peptide 6] (H-K([AEEA-AEEA-γGlu-C18 diacid])CNTATCATQRLANFLVHSSNNFGPILPPTNVGSNTY-NH2; disulfide 2-7; N-terminus assumed)
